Test systems include A549 NSCLC; COLO 205 colon; IGROV1 ovarian; M19-MEL melanoma; OVCAR-3 ovarian; OVCAR-4 ovarian; SF-295 CNS; SNB-75 CNS; A498 renal; MDA-N.
Experiment in all cases: DTP human tumour cell line panel, 48 h

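Grown in 96-well plates, cells were treated for 48 hours with each compound at five concentrations. Insufficient inhibition: endpoint recorded as highest concentration tested. GI50 marks 50% less growth. TGI marks complete inhibition of growth.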 A value given as a limit tells only on which side of the number the result lay.

What is called TGI is the concentration giving total growth inhibition. Read a high TGI as less potent growth arrest. With `CC(=O)OCc1nnn2c1C(OC(C)=O)CC2` (stereo unspecified), the TGI in the assay on A549 NSCLC, in the assay with COLO 205 colon, with IGROV1 ovarian, in the assay with M19-MEL melanoma, in the assay on OVCAR-3 ovarian and with OVCAR-4 ovarian was greater than 100 µM throughout. Also, the TGI in the assay with SF-295 CNS and in the assay with SNB-75 CNS was greater than 100 µM in each case.
In the case of `CNC(=O)/C=C/C1=CN2C(=O)c3ccc(C)c(O)c3NC(OC)C2C1` (stereo unspecified), the TGI in the assay with A498 renal was 0.713 µM; in the assay on A549 NSCLC it was greater than 100 µM; in the assay with COLO 205 colon, less than 0.0202 µM; with IGROV1 ovarian, greater than 100 µM; with MDA-N, less than 0.0211 µM; with OVCAR-3 ovarian it was 0.417 µM. For the same compound, the concentration for total growth inhibition (TGI) is 0.0244 µM with OVCAR-4 ovarian, 1.07 µM in the assay with SF-295 CNS and less than 0.0269 µM in the assay with SNB-75 CNS.
Regarding `O=C(O)CN1C(=O)OC(c2ccccc2)C1=O` (stereo unspecified), the TGI in the assay with A498 renal, with A549 NSCLC, with COLO 205 colon, with IGROV1 ovarian, in the assay with MDA-N and in the assay with OVCAR-3 ovarian was greater than 100 µM throughout. Besides, the TGI with OVCAR-4 ovarian, in the assay with SF-295 CNS and with SNB-75 CNS was greater than 100 µM each time.
On to `CCCCCc1cc(/C=C2/N=C(c3ccc[nH]3)C=C2OC)[nH]c1C`, for which the TGI with A498 renal came out at 0.959 µM; with A549 NSCLC it was 1.19 µM; with COLO 205 colon, 0.0483 µM; in the assay on IGROV1 ovarian it was 0.195 µM; in the assay on MDA-N, 0.155 µM; with OVCAR-3 ovarian, 0.469 µM. Also, the figures for the TGI with OVCAR-4 ovarian, with SF-295 CNS and in the assay with SNB-75 CNS were 0.351 µM, less than 0.0282 µM and less than 0.0124 µM, respectively.
With `C=C(C)COc1ccc2c(c1)CCC1C2CCC2(C)C(=O)/C(=N/O)CC12` (stereo unspecified), the TGI in the assay on A498 renal amounted to 24.3 µM; with A549 NSCLC it was 26.4 µM; in the assay on COLO 205 colon, 14.4 µM; with IGROV1 ovarian it was 4.6 µM; in the assay with MDA-N it was 14.7 µM; with OVCAR-3 ovarian, 14.6 µM. Besides, the values for the total growth inhibition concentration (TGI) in the assay on OVCAR-4 ovarian, in the assay on SF-295 CNS and in the assay on SNB-75 CNS were 9.69 µM, 19.3 µM and 11.9 µM, respectively.
On to `CCOC(=O)C#Cc1cccc(C#CC(=O)OCC)c1`, for which the TGI was 36.2 µM in the assay with A498 renal; 16.6 µM in the assay with A549 NSCLC; 9.92 µM in the assay on COLO 205 colon; 32.5 µM in the assay with IGROV1 ovarian; 6.44 µM in the assay with MDA-N; 13.4 µM with OVCAR-3 ovarian. Further, the TGI was found to be 7.59 µM in the assay on OVCAR-4 ovarian, 3.48 µM with SF-295 CNS and 13.4 µM in the assay with SNB-75 CNS.
For orientation: GI50 means the concentration that inhibits growth by half. With `COc1ccc(C2=C(c3ccccc3)C(=O)N3CCCC3C2)cc1` (stereo unspecified), the GI50 with A498 renal is greater than 100 µM; in the assay with A549 NSCLC it was 0.195 µM; with COLO 205 colon it was 0.241 µM; in the assay with IGROV1 ovarian, 8.51 µM; with MDA-N, 0.441 µM; in the assay with OVCAR-3 ovarian, 57 µM. Besides, the GI50 was 55.2 µM in the assay on OVCAR-4 ovarian, 2.11 µM in the assay with SF-295 CNS and 18.9 µM in the assay on SNB-75 CNS. Further, the concentration for total growth inhibition (TGI) in the assay with A498 renal, with A549 NSCLC, in the assay on COLO 205 colon, in the assay on IGROV1 ovarian, in the assay on MDA-N and with OVCAR-3 ovarian was greater than 100 µM throughout. The TGI in the assay with OVCAR-4 ovarian, in the assay on SF-295 CNS and in the assay with SNB-75 CNS was greater than 100 µM each time.
Regarding `O=C1CCc2cc(Br)ccc2O1`, the TGI with A498 renal, in the assay on A549 NSCLC, in the assay on COLO 205 colon, with IGROV1 ovarian, with MDA-N and in the assay with OVCAR-3 ovarian was greater than 100 µM in each case. For the same compound, the results for the TGI in the assay on OVCAR-4 ovarian, with SF-295 CNS and in the assay with SNB-75 CNS were greater than 100 µM, greater than 100 µM and 92.8 µM, respectively.
With `CCOC(=O)CCc1c(C)c2c(OC)cc(OC)cc2oc1=O`, the TGI with A549 NSCLC, in the assay on COLO 205 colon, in the assay with M19-MEL melanoma, in the assay on OVCAR-3 ovarian, in the assay on OVCAR-4 ovarian and in the assay with SF-295 CNS was greater than 100 µM throughout. The compound further showed a concentration for total growth inhibition (TGI) with SNB-75 CNS greater than 100 µM.
Regarding `Cc1[nH]c(=O)n2c(C)nnc2c1C(=O)O`, the total growth inhibition concentration (TGI) in the assay on COLO 205 colon, in the assay on IGROV1 ovarian, with M19-MEL melanoma, in the assay with OVCAR-3 ovarian, in the assay on OVCAR-4 ovarian and with SF-295 CNS was greater than 100 µM in each case.
Turning to `COc1cc(-c2oc3c(OC)c(O)c(OC)c(O)c3c(=O)c2OC)cc(OC)c1OC`, the TGI is greater than 100 µM with A498 renal; greater than 100 µM in the assay on A549 NSCLC; greater than 100 µM in the assay on COLO 205 colon; greater than 100 µM with IGROV1 ovarian; greater than 100 µM in the assay with MDA-N; 95.9 µM in the assay with OVCAR-3 ovarian. Also, the TGI in the assay on OVCAR-4 ovarian was greater than 100 µM; in the assay with SF-295 CNS it was greater than 100 µM; in the assay on SNB-75 CNS, 60.2 µM.
Turning to `O=C(CCN1CCCCC1)c1csc2ccccc12`, the TGI in the assay on A498 renal, in the assay on A549 NSCLC, in the assay with COLO 205 colon, in the assay on IGROV1 ovarian, with MDA-N and in the assay with OVCAR-3 ovarian was greater than 100 µM each time. Further, the TGI in the assay on OVCAR-4 ovarian, in the assay on SF-295 CNS and with SNB-75 CNS was greater than 100 µM each time.

Source of the values: PubChem BioAssay (NCI).
